The test system of one series is Aedes aegypti. The series is described as follows: Burning coil trial in ventilated 20 cubic metre test chamber with human subject: landing/bite inhibition, knockdown, 24 hour mortality. Format: in vivo. As to conditions: for % KD (15 mins) / 24 hour % mortality (15 mins exposure): 15 minutes exposure; for 24 hour % mortality (15 mins exposure): dead after 24 hours; for % bite inhibition / % landing inhibition: assessed 10 to 15 minutes exposure. The procedure:
A combustible coil according to the present invention containing bifenthrin was compared with coils containing other pyrethroid active ingredients (d-allethrin, d-phenothrin, imiprothrin, permethrin, cypermethrin, bioresmethrin, deltamethrin) as indicated in Table 2. All coils contained active ingredients in an amount that rendered them similar in cost to the current leading d-allethrin coils. The range of actives covered both knockdown and residual pyrethroids. The trial was carried out against the Dengue mosquito (Aedes aegypti). The methodology employed is as follows:
The study was conducted in a ventilated test chamber (20 cubic metres) at a temperature of between 27° C. and 28.7° C. The relative humidity was ambient and ranged from 51% to 58%.
Mixed sex adult 6 to 10 day old Dengue mosquitoes (Aedes aegypti) were used in this study. There were 50 female mosquitoes released per replicate and a variable number of male mosquitoes. The mosquitoes were collected and immobilised. Male and female mosquitoes were added to a container until 50 female mosquitoes were obtained. Because only female mosquitoes bite human subjects, the number of males present in each trial was irrelevant. The mosquitoes were allowed to recover for at least one hour before being used for testing.
A positive air flow of 0.4 metres/second was generated into the chamber and air was passively vented from the chamber.
Coil treatments were placed on the floor in the test chamber, and were allowed to burn for 5 minutes before all mosquitoes were brought into the chamber and released. The coils continued to operate during the assessments and were stopped at the completion of the test period.
Starting from 10 minutes after the mosquitoes were released, an assessment was made by one human subject of the mosquito landings and bites over a 5 minute period. Whilst seated in the chamber, the subject recorded the total number of females that initiated a bite on the subject's legs, as well as the number of females that landed without initiating biting. Mosquitoes were permitted to probe the subject but not permitted to bite the subject, and were chased away prior to this occurring.
Immediately after the 5 minute assessment period, the number of knocked down mosquitoes was recorded. All the mosquitoes were collected and removed from the chamber. After 24 hours, the number of dead mosquitoes was recorded. The same human subject was used for all assessments.
The results shown in the Table 2 are the means of four trials.
Percentage landing inhibition refers to the number of mosquitoes which landed on the subject in the absence of any treatment (untreated control), minus the number of mosquitoes which landed on the subject in the presence of a coil treatment, divided by the number of mosquitoes which landed on the subject in the absence of any treatment, expressed as a percentage. Landing inhibition was assessed from 10 to 15 minutes exposure of the Aedes aegypti mosquitoes to each burning coil treatment.
Percentage bite inhibition refers to the number of mosquitoes which probed or attempted to bite the subject in the absence of any treatment (untreated control), minus the number of mosquitoes which attempted to bite the subject in the presence of a coil treatment, divided by the number of mosquitoes which attempted to bite the subject in the absence of any treatment, expressed as a percentage. It will be appreciated that, as mosquitoes must first land before attempting to bite, of necessity, percentage bite inhibition will always be lower than or equal to percentage landing inhibition. Bite inhibition was assessed from 10 to 15 minutes exposure of the Aedes aegypti mosquitoes to each burning coil treatment.
Knockdown refers to mosquitoes present on the floor of the chamber after the 15 minute trial, which were either dead, moribund, or incapacitated (i.e. unable to fly off the floor of the chamber). […]

For series [1] the following is noted: cited from earlier work.
The next series relates to Culex quinquefasciatus. The series is described as follows: Burning coil trial with mosquitoes confined in a small cage in the chamber, subject's arm inserted: landing/bite inhibition, knockdown, 24 hour mortality. As to conditions: caged Culex quinquefasciatus; for % KD (15 mins) / % bite inhibition / % landing inhibition: 15 minutes exposure. Format: in vivo. The protocol:
The trial detailed in Example 2 was repeated against the much more difficult to kill Culex quinquefasciatus mosquitoes. The methodology used was similar to that employed for Aedes aegypti described above, with the following variations.
One hundred female and a variable number of male Cx. quinquefasciatus were confined in a small cage which was placed in the chamber 5 minutes after the coil treatment had been ignited. For this species of mosquito, the subject's arm was inserted into the cage for determinations of landing and biting rates. The reasons for these changes in methodology compared to those used for Ae. aegypti was because Cx. quinquefasciatus are much weaker biters. This meant that satisfactory biting rates could only be achieved by confining them to a small volume.
Percentage landing inhibition, percentage bite inhibition, percentage knockdown and percentage mortality are as defined above. […] As Cx. quinquefasciatus is a more robust mosquito species the lower level of mortality after 15 minutes exposure when compared with the Ae. aegypti mosquitoes was expected.

Series [2] in a line: Comparison of physical properties of pyrethroids (The Pesticide Manual). As to conditions: ratio of the cited vapour pressures. Format: physicochemical. The text has this:
The present inventors compared some physical properties of bifenthrin with those of other residual pyrethroids.

Setting [3] is: burning coil with 0.035% imiprothrin.
[4] abbreviates: burning coil with 0.02% bifenthrin.
[5] abbreviates: burning coil with 0.05% bifenthrin.
[6] abbreviates: burning coil with 0.10% bifenthrin.
The mark [7] stands for this setting: burning coil with 0.056% bioresmethrin.
The mark [8] stands for this setting: burning coil with 0.3% cypermethrin.
Setting [9] is: burning coil with 0.07% deltamethrin.
The mark [10] stands for this setting: burning coil with 0.705% permethrin.
Setting [11] is: burning coil with 0.25% d-allethrin.
[12] abbreviates: burning coil with 0.228% d-phenothrin.

Where two headings read alike, the source gives them in different places.

Turning to `C#CCN1CC(=O)N(COC(=O)[C@@H]2C(C=C(C)C)C2(C)C)C1=O` (mixture of isomers) [Imiprothrin, imiprothrin], in the series with Aedes aegypti (setting [3]), the “% KD (15 mins)” value came out at 1%, the “24 hour % mortality (15 mins exposure)” value turned out to be 7%, the “% bite inhibition” value is recorded as 34% and the “% landing inhibition” value is reported as 34%. The “Vapour Pressure” value in series [1] (25° C.) was 0.0018 mPa.
Turning to `Cc1c(COC(=O)[C@H]2[C@@H](/C=C(\Cl)C(F)(F)F)C2(C)C)cccc1-c1ccccc1` (racemic) [Bifenthrin, 2-methylbiphenyl-3-ylmethyl (Z)-(1RS,3RS)-3-(2-chloro-3,3,3-trifluoroprop-1-enyl)-2,2-dimethylcyclopropanecarboxylate], the “24 hour % mortality (15 mins exposure)” value in the series on Culex quinquefasciatus (setting [4]) is 9%; with Culex quinquefasciatus (setting [5]), 27%; in the series on Culex quinquefasciatus (setting [6]), 39%; in the series on Aedes aegypti (setting [4]), 78%; with Aedes aegypti (setting [5]) it was 94%; in the series on Aedes aegypti (setting [6]), 96%. For the same molecule, the “% KD (15 mins)” value in the series on Culex quinquefasciatus (setting [4]) is recorded as 1%; with Culex quinquefasciatus (setting [5]), 3%; in the series with Culex quinquefasciatus (setting [6]), 4%; in the series with Aedes aegypti (setting [4]), 15%; in the series on Aedes aegypti (setting [5]), 31%; with Aedes aegypti (setting [6]), 30%. For the same molecule, the “% bite inhibition” value was found to be 96% in the series with Culex quinquefasciatus (setting [4]); 95% in the series with Culex quinquefasciatus (setting [5]); 99% with Culex quinquefasciatus (setting [6]); 95% in the series on Aedes aegypti (setting [4]); 99% with Aedes aegypti (setting [5]); 100% in the series with Aedes aegypti (setting [6]). Also, the “% landing inhibition” value in the series on Culex quinquefasciatus (setting [4]) was 86%; in the series with Culex quinquefasciatus (setting [5]), 85%; with Culex quinquefasciatus (setting [6]), 86%; in the series with Aedes aegypti (setting [4]), 80%; in the series on Aedes aegypti (setting [5]) it was 87%; in the series on Aedes aegypti (setting [6]), 92%. Further, the “Vapour Pressure” value in series [1] (25° C.) is 0.024 mPa.
As for `CC(C)=C[C@@H]1[C@@H](C(=O)OCc2coc(Cc3ccccc3)c2)C1(C)C` [Bioresmethrin, bioresmethrin], in series [2], the “vapour pressure relative to bifenthrin” value worked out at 775 times. Moreover, in the series on Aedes aegypti (setting [7]), the “% KD (15 mins)” value is recorded as 41%, the “24 hour % mortality (15 mins exposure)” value is listed as 23%, the “% bite inhibition” value is listed as 99% and the “% landing inhibition” value was 96%. For the same molecule, the “Vapour Pressure” value in series [1] (25° C.) is 18.6 mPa.
With `CC1(C)C(C=C(Cl)Cl)C1C(=O)OC(C#N)c1cccc(Oc2ccccc2)c1` (stereo not drawn) [Cypermethrin, cypermethrin], in the series with Aedes aegypti (setting [8]), the “% KD (15 mins)” value amounted to 10%, the “24 hour % mortality (15 mins exposure)” value is recorded as 56%, the “% bite inhibition” value stood at 73% and the “% landing inhibition” value is 70%. The “Vapour Pressure” value in series [1] (20° C.) was 0.0002 mPa.
For the molecule `CC1(C)[C@H](C(=O)O[C@H](C#N)c2cccc(Oc3ccccc3)c2)[C@@H]1C=C(Br)Br` [Deltamethrin, deltamethrin], in the series with Aedes aegypti (setting [9]), the “% KD (15 mins)” value is 0%, the “24 hour % mortality (15 mins exposure)” value turned out to be 12%, the “% bite inhibition” value stood at 57% and the “% landing inhibition” value is reported as 57%. In series [1] (25° C.), the “Vapour Pressure” value was 0.0000124 mPa.
For the molecule `CC1(C)C(C=C(Cl)Cl)C1C(=O)OCc1cccc(Oc2ccccc2)c1` (stereo not drawn) [Permethrin, permethrin], in the series with Aedes aegypti (setting [10]), the “% KD (15 mins)” value is listed as 35%, the “24 hour % mortality (15 mins exposure)” value came out at 55%, the “% bite inhibition” value came out at 85% and the “% landing inhibition” value is reported as 8%. The “Vapour Pressure” value in series [1] (20° C.) is 0.0025 mPa.
As to `C=CCC1=C(C)C(OC(=O)C2C(C=C(C)C)C2(C)C)CC1=O` (stereo not drawn) [d-Allethrin, d-allethrin], in the series on Culex quinquefasciatus (setting [11]), the “24 hour % mortality (15 mins exposure)” value is 2%, the “% KD (15 mins)” value came out at 7%, the “% bite inhibition” value is 94% and the “% landing inhibition” value is recorded as 87%. In addition, at Aedes aegypti (setting [11]), the “% KD (15 mins)” value came out at 35%, the “24 hour % mortality (15 mins exposure)” value turned out to be 7%, the “% bite inhibition” value came to 100% and the “% landing inhibition” value amounted to 98%. The “24 hour % mortality (15 mins exposure)” value with Aedes aegypti (burning coil with 0.25% d-allethrin, listed as d-allethrin) is listed as “no different from the untreated control”. Further, in series [1] (21° C.), the “Vapour Pressure” value was 0.16 mPa.
For `CC(C)=CC1C(C(=O)OCc2cccc(Oc3ccccc3)c2)C1(C)C` (stereo not drawn) [d-Phenothrin, d-phenothrin], on Aedes aegypti (setting [12]), the “% KD (15 mins)” value is listed as 39%, the “24 hour % mortality (15 mins exposure)” value was determined as 24%, the “% bite inhibition” value is 100% and the “% landing inhibition” value came out at 98%. In addition, in series [1] (21.4° C.), the “Vapour Pressure” value is recorded as 0.019 mPa.
